From patent US20060110385A1, “Means and methods for diagnosing and treating affective disorders” (Affectis Pharmaceuticals AG, priority 2003, published 2006)

Columns and labels:
DBA/201a mouse strain = test: Porsolt's forced swim test after intrahippocampal BzATP; type: in vivo; settings: 50 μM BzATP, 24 hours after injection
Excerpt: In the present example, the P2X7R agonist was directly injected into the hippocampus of mice. However, a P2X7R agonist agent or compound could also be delivered orally, subcutaneously, intravenously, intra-arterial, intranodal, intramedullary, intrathecal, intraventricular, intranasally, intrabronchial, transdermally, intrarectally, intraperitoneally, intramuscularly, intrapulmonary, vaginally, rectally, or intraocularly.
Four months old male mice were bilaterally implanted with guide cannulae (23 gauge, length 8 mm) by means of a stereotactic instrument (David Kopf Instruments). The coordinates, in relation to bregma, were −2.0 mm posterior, ±1.0 mm lateral, and −1.0 mm ventral. After surgery, the mice were allowed to recover for 10 to 12 days. […] Injections were performed using a 9 mm-30 gauge needle inserted into the guide cannulae and connected via tubing to a 10 μl Hamilton syringe.
The forced swim test is a standard test that measures primary stress-induced reductions in avoidance or escape, termed behavioural despair. The test is used to determine the effectiveness of antidepressants, test new pharmaceutical compounds and validate animal models of depression (Porsolt et al., Arch. Int. Pharmacodym. 229 (1977), 327-336; Porsolt, Rev. Neurosci. 11 (2000), 53-58; Rénéric et al., Behav. Brain Res. 136 (2002), 521-532; Page et al., Psychopharmacology 165 (2003), 194-201; Kelliher et al., Psychoneuroendocrinology 28 (2003), 332-347). The test consists of placing a mouse for a period of 5 minutes into a glass cylinder containing water. Under such circumstances, the mouse cannot touch the bottom of the cylinder and is thus forced to swim. Time, latency and frequency of struggling versus floating are scored as behavioural parameters. […] Increased struggling (i.e. active attempts to escape) indicates active coping behaviour that can be interpreted as an improvement of depression-like symptoms. For example, treatment with serotonergic antidepressants reduce the total time spent floating (Borsini, Neurosci. Biobehav. Rev. 19 (1995), 377-395; Redrobe and Bourin, Psychopharmacology 138 (1998), 198-206, and in parallel increases the time of active behaviour (i.e. swimming or struggling; Lucki et al., Psychopharmacology 155 (2001), 315-322).

mice = test: Open field test (locomotor activity) after BzATP; type: in vivo, mouse; settings: 50 μM BzATP, 24 hours after injection, 30 minutes
Procedure: Locomotor activity was monitored for a period of 30 minutes using a video camera. Overall distance travelled by the animals during the testing period was then analysed by means of VideoMot2 computer software (TSE GmbH, Bad Homburg).

P2X7R [1] = target: T1, P2X7R (Homo sapiens, UniProt Q99572); settings: dose response curve, Y-axis ion current; cited from earlier work
T1 sequence (Q99572 1-595): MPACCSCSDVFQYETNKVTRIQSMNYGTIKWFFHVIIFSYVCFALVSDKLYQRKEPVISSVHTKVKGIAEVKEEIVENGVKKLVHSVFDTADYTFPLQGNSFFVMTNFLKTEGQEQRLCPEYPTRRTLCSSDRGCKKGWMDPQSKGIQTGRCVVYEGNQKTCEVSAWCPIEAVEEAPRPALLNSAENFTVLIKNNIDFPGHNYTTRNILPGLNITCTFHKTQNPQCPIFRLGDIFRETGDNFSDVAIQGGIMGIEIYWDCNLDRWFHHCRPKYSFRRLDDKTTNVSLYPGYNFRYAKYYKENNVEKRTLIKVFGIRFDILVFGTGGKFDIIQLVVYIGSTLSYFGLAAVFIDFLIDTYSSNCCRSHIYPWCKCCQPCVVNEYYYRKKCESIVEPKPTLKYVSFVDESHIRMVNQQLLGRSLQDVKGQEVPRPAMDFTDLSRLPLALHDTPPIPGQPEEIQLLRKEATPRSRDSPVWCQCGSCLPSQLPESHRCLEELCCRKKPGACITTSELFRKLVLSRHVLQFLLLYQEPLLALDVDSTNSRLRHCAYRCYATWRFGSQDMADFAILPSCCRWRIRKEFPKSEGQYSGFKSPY

P2X7R [2] = target: T1, P2X7R; test: Calcium entry (Fluo-4 AM) in HT-22 cells overexpressing human P2X7R; type: cell-based; parameters: expressed in transfected cells; settings: 20 μM BzATP or 50 μM tenidap
Excerpt: Yet another method for identifying P2X7R agonists was devised by generating a immortalised mouse cell line that overexpresses the human P2X7R gene under the control of the human cytomegalovirus (CMV) early promoter/enhancer region. The human P2X7R cDNA was inserted into the pcDNA3.1 vector (Invitrogen) and transfected into the mouse hippocampal cell line HT-22 using Lipofectamine (Invitrogen) according to the manufacturer's specifications. One day after transfection, culture medium containing 500 μg/ml G418 was added to the cells. Resistant clones were separately isolated and cultured 14 days after applying the selection medium.
The agonistic activity of a compound was evaluated by measuring calcium entry in the cells that overexpress the human P2X7R. Cells were cultured in 96 well plates and incubated at 37° C. with 5% CO2 DMEM with 10% foetal calf serum (Gibco) until they reached confluence. Cells were then loaded for one hour with 10 μM of Fluo-4 AM (Molecular Probes). Fluo-4 AM is a fluorescent dye that binds to intracellular calcium. […] Agonist activity was detected by measuring an increase in calcium influx which results in increased binding to Fluo-4 AM and increased fluorescence. Changes in fluorescence signal are measured using a Fluostar Optima plate reader (BMG biotech). […] Thus, both compound stimulated the activity of P2X7R which results in an influx of ions into the cells.

[3] = 1 μl each side, not supported statistically
[4] = 1 μl each side, statistically significant

2′-3′-O-(4-Benzoylbenzoyl)adenosine 5′-triphosphate [BzATP]
time of struggling (DBA/201a mouse strain; 1 μl each side of hippocampus, statistically significant): increase | frequency of struggling (DBA/201a mouse strain; [3]): increase | latency of struggling (DBA/201a mouse strain; [3]): decrease | time of floating (DBA/201a mouse strain; [3]): decrease | frequency of floating (DBA/201a mouse strain; [4]): decrease | latency of floating (DBA/201a mouse strain; [4]): increase | locomotor activity (overall distance travelled) (mice): No difference in locomotor activity | EC50 (P2X7R [1]): 8 µM | fluorescence intensity (calcium influx, Fluo-4 AM) (P2X7R [2]): rapid increase in fluorescence intensity
